Settings: in vivo

O=S(=O)(O)O [sulfuric acid]
irritation or injury of a hand put into the solution: an irritation would occur within a relatively short span of time

Reference: patent US20020197365A1, “Highly acidic metalated mixture of inorganic acids” (priority 2001, published 2002)
